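Briefly, cells in 96-well plates were exposed to five compound concentrations for 48 h, and endpoints were estimated by linear interpolation. At the GI50, growth is halved.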 Calls of active or inactive are those of the source. No stated cut-off is given here; in the data, active = GI50 up to about 1.1 µM and inactive = higher.
Key:
Experiment in all cases: NCI-60 cell line screen, 48 h
[1] = tested on: 786-0
[2] = tested on: CAKI-1
[3] = tested on: DU-145
[4] = tested on: HCT-116
[5] = tested on: HCT-15
[6] = tested on: HT-29
[7] = tested on: K562
[8] = tested on: LOX IMVI
[9] = tested on: MDA-MB-231
[10] = tested on: MDA-MB-435
[11] = tested on: MOLT-4
[12] = tested on: NCI/ADR-RES
[13] = tested on: OVCAR-3
[14] = tested on: OVCAR-4
[15] = tested on: OVCAR-8
[16] = tested on: RXF 393
[17] = tested on: SF-295
[18] = tested on: SNB-19
[19] = tested on: MCF7
[20] = tested on: SF-539

NCC(=O)Nc1ccccc1
GI50 [1]: > 100 µM (inactive) | GI50 [2]: > 100 µM (inactive) | GI50 [3]: > 100 µM (inactive) | GI50 [4]: > 100 µM (inactive) | GI50 [5]: > 100 µM | GI50 [6]: > 100 µM (inactive) | GI50 [7]: 60.5 µM (inactive) | GI50 [8]: > 100 µM (inactive) | GI50 [9]: 15.5 µM (inactive) | GI50 [10]: > 100 µM (inactive) | GI50 [11]: > 100 µM (inactive) | GI50 [12]: > 100 µM (inactive) | GI50 [13]: > 100 µM (inactive) | GI50 [14]: > 100 µM (inactive) | GI50 [15]: > 100 µM (inactive) | GI50 [16]: > 100 µM (inactive) | GI50 [17]: > 100 µM (inactive) | GI50 [18]: > 100 µM (inactive)

O=C(NNC(=S)NCc1ccccc1)c1csc(NC(=S)NC2CCCCC2)n1
GI50 [1]: 45.8 µM (inactive) | GI50 [2]: 47.3 µM (inactive) | GI50 [3]: 59 µM (inactive) | GI50 [4]: 22.3 µM (inactive) | GI50 [5]: 37.5 µM | GI50 [6]: 3.42 µM (inactive) | GI50 [8]: 27.4 µM (inactive) | GI50 [19]: 29.6 µM (inactive) | GI50 [9]: 44.9 µM (inactive) | GI50 [10]: 26.7 µM (inactive) | GI50 [11]: 30.3 µM (inactive) | GI50 [12]: 31.3 µM (inactive) | GI50 [13]: 42.1 µM (inactive) | GI50 [15]: 39.4 µM (inactive) | GI50 [17]: 42.1 µM (inactive) | GI50 [20]: 38 µM (inactive) | GI50 [18]: 76.6 µM (inactive)

CC(C)Oc1ccc2c(c1)OCC1Cc3ccccc3OC21 (stereo not drawn)
GI50 [1]: > 100 µM (inactive) | GI50 [2]: > 100 µM (inactive) | GI50 [3]: > 100 µM (inactive) | GI50 [4]: > 100 µM (inactive) | GI50 [5]: 18.3 µM | GI50 [6]: 41.4 µM (inactive) | GI50 [7]: 88.1 µM (inactive) | GI50 [8]: > 100 µM (inactive) | GI50 [19]: 46.8 µM (inactive) | GI50 [9]: > 100 µM (inactive) | GI50 [10]: 63.2 µM (inactive) | GI50 [11]: 36.2 µM (inactive) | GI50 [12]: 71.9 µM (inactive) | GI50 [13]: > 100 µM (inactive) | GI50 [15]: > 100 µM (inactive) | GI50 [17]: 63.2 µM (inactive) | GI50 [20]: > 100 µM (inactive)

CCOC(=O)c1nc2cc(F)c(F)cc2nc1NCc1cc(OC)c(OC)c(OC)c1
GI50 [1]: 57.1 µM (inactive) | GI50 [2]: > 100 µM (inactive) | GI50 [3]: > 100 µM (inactive) | GI50 [4]: > 100 µM (inactive) | GI50 [5]: > 100 µM | GI50 [6]: > 100 µM (inactive) | GI50 [8]: > 100 µM (inactive) | GI50 [19]: > 100 µM (inactive) | GI50 [10]: > 100 µM (inactive) | GI50 [11]: > 100 µM (inactive) | GI50 [12]: > 100 µM (inactive) | GI50 [13]: > 100 µM (inactive) | GI50 [14]: > 100 µM (inactive) | GI50 [15]: > 100 µM (inactive) | GI50 [16]: 30.1 µM (inactive) | GI50 [17]: > 100 µM (inactive) | GI50 [20]: > 100 µM (inactive) | GI50 [18]: 42.5 µM (inactive)

O=c1nc(N2CCCCC2)sc2[nH]c3ccccc3c12
GI50 [1]: > 100 µM (inactive) | GI50 [2]: > 100 µM (inactive) | GI50 [3]: > 100 µM (inactive) | GI50 [5]: > 100 µM | GI50 [6]: 62.4 µM (inactive) | GI50 [7]: > 100 µM (inactive) | GI50 [8]: 74.8 µM (inactive) | GI50 [9]: 78.7 µM (inactive) | GI50 [10]: > 100 µM (inactive) | GI50 [11]: > 100 µM (inactive) | GI50 [12]: 12.6 µM (inactive) | GI50 [13]: 88.9 µM (inactive) | GI50 [14]: > 100 µM (inactive) | GI50 [15]: > 100 µM (inactive) | GI50 [17]: > 100 µM (inactive) | GI50 [20]: > 100 µM (inactive) | GI50 [18]: 63.1 µM (inactive)

CN(CCN1CCCC1)C1CCc2cc(Cl)c(Cl)cc2C1 (stereo not drawn)
GI50 [1]: 14.7 µM (inactive) | GI50 [2]: 17.3 µM (inactive) | GI50 [3]: 13.2 µM (inactive) | GI50 [4]: 12.5 µM (inactive) | GI50 [5]: 13.2 µM | GI50 [6]: 10.4 µM (inactive) | GI50 [7]: 21.8 µM (inactive) | GI50 [8]: 15.1 µM (inactive) | GI50 [19]: 14.8 µM (inactive) | GI50 [9]: 17.6 µM (inactive) | GI50 [10]: 14.4 µM (inactive) | GI50 [11]: 24.8 µM (inactive) | GI50 [12]: 12.4 µM (inactive) | GI50 [13]: 17.1 µM (inactive) | GI50 [14]: 21.4 µM (inactive) | GI50 [15]: 16.2 µM (inactive) | GI50 [17]: 15.7 µM (inactive) | GI50 [20]: 16.1 µM (inactive) | GI50 [18]: 19.7 µM (inactive)

CSc1cnn(CCC#N)c(=O)n1
GI50 [1]: > 100 µM (inactive) | GI50 [2]: > 100 µM (inactive) | GI50 [3]: > 100 µM (inactive) | GI50 [4]: > 100 µM (inactive) | GI50 [5]: > 10 µM | GI50 [6]: > 100 µM (inactive) | GI50 [7]: 33.1 µM (inactive) | GI50 [8]: 93.5 µM (inactive) | GI50 [19]: 39.4 µM (inactive) | GI50 [9]: > 100 µM (inactive) | GI50 [10]: > 100 µM (inactive) | GI50 [11]: 27.1 µM (inactive) | GI50 [15]: > 100 µM (inactive) | GI50 [16]: > 100 µM (inactive) | GI50 [17]: > 100 µM (inactive) | GI50 [20]: > 100 µM (inactive) | GI50 [18]: > 100 µM (inactive)

O=C(/C(=C\C(=O)c1cccs1)c1ccsc1)c1ccc(Br)cc1
GI50 [1]: > 100 µM (inactive) | GI50 [2]: > 100 µM (inactive) | GI50 [3]: > 100 µM (inactive) | GI50 [4]: > 100 µM (inactive) | GI50 [5]: > 100 µM | GI50 [6]: 80 µM (inactive) | GI50 [7]: > 100 µM (inactive) | GI50 [19]: > 100 µM (inactive) | GI50 [9]: > 100 µM (inactive) | GI50 [10]: > 100 µM (inactive) | GI50 [11]: > 100 µM (inactive) | GI50 [12]: 88.5 µM (inactive) | GI50 [14]: > 10 µM (inactive) | GI50 [15]: > 100 µM (inactive) | GI50 [17]: > 100 µM (inactive) | GI50 [20]: > 100 µM (inactive) | GI50 [18]: > 100 µM (inactive)

CC(=O)/C(=C\Nc1c(C)n(C)n(C)c1=O)C(=O)c1ccccc1
GI50 [1]: > 50 µM (inactive) | GI50 [2]: > 50 µM (inactive) | GI50 [3]: > 50 µM (inactive) | GI50 [4]: > 50 µM (inactive) | GI50 [5]: > 50 µM | GI50 [6]: > 50 µM (inactive) | GI50 [7]: > 50 µM (inactive) | GI50 [8]: > 50 µM (inactive) | GI50 [19]: > 50 µM (inactive) | GI50 [9]: > 50 µM (inactive) | GI50 [10]: > 50 µM (inactive) | GI50 [11]: > 50 µM (inactive) | GI50 [13]: > 50 µM (inactive) | GI50 [14]: > 50 µM (inactive) | GI50 [16]: > 50 µM (inactive) | GI50 [17]: > 50 µM (inactive) | GI50 [20]: > 50 µM (inactive) | GI50 [18]: > 50 µM (inactive)

CC(Nc1ccc(Cl)cc1)c1ccncc1 (stereo not drawn)
GI50 [1]: > 100 µM (inactive) | GI50 [2]: > 100 µM (inactive) | GI50 [3]: 74.6 µM (inactive) | GI50 [4]: 53.3 µM (inactive) | GI50 [5]: > 100 µM | GI50 [6]: 89.5 µM (inactive) | GI50 [7]: 75.3 µM (inactive) | GI50 [8]: > 100 µM (inactive) | GI50 [19]: > 100 µM (inactive) | GI50 [10]: > 100 µM (inactive) | GI50 [11]: 64.3 µM (inactive) | GI50 [12]: 61.5 µM (inactive) | GI50 [13]: > 100 µM (inactive) | GI50 [14]: > 100 µM (inactive) | GI50 [15]: > 100 µM (inactive) | GI50 [16]: 41.8 µM (inactive) | GI50 [17]: 72.6 µM (inactive) | GI50 [20]: > 100 µM (inactive) | GI50 [18]: > 100 µM (inactive)

C=CC1CN(C(=O)OCC)N(C(=O)OCC)C1CCc1ccccc1 (stereo not drawn)
GI50 [1]: > 100 µM (inactive) | GI50 [2]: > 100 µM (inactive) | GI50 [3]: > 100 µM (inactive) | GI50 [4]: 67.1 µM (inactive) | GI50 [5]: 65.5 µM | GI50 [6]: > 100 µM (inactive) | GI50 [7]: 50.8 µM (inactive) | GI50 [8]: > 100 µM (inactive) | GI50 [19]: 42.2 µM (inactive) | GI50 [9]: > 100 µM (inactive) | GI50 [10]: > 100 µM (inactive) | GI50 [11]: 31.2 µM (inactive) | GI50 [12]: 85.1 µM (inactive) | GI50 [14]: 57.4 µM (inactive) | GI50 [15]: > 100 µM (inactive) | GI50 [17]: 58.6 µM (inactive) | GI50 [18]: > 100 µM (inactive)

CCOC(=O)C1(NC(=O)OC(C)(C)C)CCc2[nH]oc(=O)c2C1 (stereo not drawn)
GI50 [1]: > 100 µM (inactive) | GI50 [2]: > 100 µM (inactive) | GI50 [3]: > 100 µM (inactive) | GI50 [4]: > 100 µM (inactive) | GI50 [5]: > 100 µM | GI50 [6]: > 100 µM (inactive) | GI50 [7]: > 100 µM (inactive) | GI50 [8]: > 100 µM (inactive) | GI50 [19]: > 100 µM (inactive) | GI50 [9]: > 100 µM (inactive) | GI50 [10]: > 100 µM (inactive) | GI50 [11]: > 100 µM (inactive) | GI50 [12]: > 100 µM (inactive) | GI50 [13]: > 100 µM (inactive) | GI50 [14]: > 100 µM (inactive) | GI50 [15]: > 100 µM (inactive) | GI50 [17]: > 100 µM (inactive) | GI50 [20]: > 100 µM (inactive) | GI50 [18]: > 100 µM (inactive)

Source: ChEMBL document CHEMBL1201862, “PubChem BioAssay data set” (2004)
